{
  "source": "patent US20160166705A1",
  "about": "“THERAPEUTICAL USE OF TERNARY COMPLEXES OF VALPROIC ACID” (UNIVERSITE PARIS-SUD XI, priority 2009, published 2016)",
  "key": {"[1]": {"system": "leukocyte migration", "test": "Anti-inflammatory tail section assay, leukocyte migration in zebrafish", "type": "in vivo", "experimental": "(§1) All chemicals were firstly dissolved in dimethylsulfoxide, DMSO 99.5% (GC) Sigma-Aldrich), and then diluted in embryo medium E3 (5 mM NaCl, 0.17 mM KCl, 0.33 mM CaCl2, 0.33 mM Mg2SO4, 10-5% methylene blue).\n(§2) During the course of the experiments, transgenic zebrafish of the fli-1: EGFP lines were used. Once the fertilized eggs were collected, they were reared in embryo medium E3 in an incubator at 28° C. The 20 hours post fertilization (hpf), 1-phenyl-2-thiourea (PTU) (Sigma-10×(0.03%)) was added to larvae's medium in 1:9 proportion to prevent the formation of melanophores in zebrafish embryos and larvae [Karlsson, J., von Hofsten, J. and Olsson, P. Mar. Biotechnol., 2001, 3, 522-527].\nThe experimental corroboration of anti-inflammatory activity was done by using a new in vivo test development using zebrafish biological material [Siverio-Mota, D., de Witte, P. et al, 2009, in preparation]. The principal aspects of this new biological assay are the following. First, ten larvae from 4 dpf were used per treated and control groups. In each case, the MTC was used as the assay concentration and indomethacin (Merck Sharp & Dohme) at 30 μM was used as control group. These larvae were placed in wells of a 24 wells tissue culture plate at assay's concentrations in ImL final volume. After one hour, the larvae were anesthetized by immersion in E3 containing tricaine (Westerfield, M., The Zebrafish Book: A Guide for the Laboratory Use of Zebrafish (Brachydanio rerio). 1995, Eugene, Oreg., University of Oregon Press), the complete section of the tail was performed with a sterile scalpel. Once tails were cut, zebrafish were placed again in a 24 wells tissue culture plate at assay's concentrations together with 10 μg/mL solution of lipopolysaccharide to stimulate the leukocyte migration. The temperature of incubation was kept from 20 to 22° C. […]\nAnti-inflammatory activity was evaluated following the steps described above. Leukocyte migration to damaged zone (end tail) was observed and evaluated as the parameter determining the anti-inflammatory activity of the tested compounds. […]"}, "[2]": {"system": "Maximal Electroshock (MES) induced seizures", "test": "Maximal Electroshock Seizure (MES) test", "type": "in vivo", "conditions": "mice ip 57, 188, or 570 µmg/kg; challenge 0.5 and 4 h after treatment", "experimental": "Anticonvulsant activities were determined by the National Institutes of Health-National Institute of Neurological Disorders and Stroke-Antiepileptic Drug Development program for the detection and evaluation of compounds as anticonvulsants agents. Compounds were suspended in polyethylene glycol prior to injection into male Carworth Farms #1 mice. In Phase I studies, identification of anti-convulsant activity, test compounds were given intraperitonealy ([…]) of body mass, and protection against Maximal Electroshock (MES), Minimal Electroshock (MCS) and/or Metrazol (scMET) induced seizures was determined 30 min and 4 h later. All statistics were obtained by Probit analysis.\nMaximal electroshock seizure (MES) were elicited with a 60 cycles alternating current of 50 mA, five to seven times that necessary to elicit minimal electroshock seizures, delivered for 0.2 s via corneal electrodes. A drop of 0.9% saline solution was instilled into both eyes prior to application of electrodes in order to prevent death. Abolition of the hind limb tonic extension component of seizure is defined as anticonvulsant activity."}, "[3]": {"system": "Minimal Clonic Seizure", "test": "Minimal Electroshock / Psychomotor (Minimal Clonic) Seizure test (MCS)", "type": "in vivo, mice", "conditions": "for anticonvulsant activity against MCS, complex versus individual constituents: mouse, in vivo", "experimental": "Anticonvulsant activities were determined by the National Institutes of Health-National Institute of Neurological Disorders and Stroke-Antiepileptic Drug Development program for the detection and evaluation of compounds as anticonvulsants agents. Compounds were suspended in polyethylene glycol prior to injection into male Carworth Farms #1 mice. In Phase I studies, identification of anti-convulsant activity, test compounds were given intraperitonealy (ip) at 57, 188 and 570 milligrams-per-kilogram (mg/kg) of body mass, and protection against Maximal Electroshock (MES), Minimal Electroshock (MCS) and/or Metrazol (scMET) induced seizures was determined 30 min and 4 h later. All statistics were obtained by Probit analysis.\nThis test was designed to detect compounds that are missed with the MES tests which employ a larger current of 50 mA. The delivery of a less intense electric stimulation which produces less intense stimulation of the CNS (Central Nervous System) and brain inflammation than the MES test, via corneal electrodes of 6 Hz, 32 mA or slightly higher current, for 3 s, is used to produce psychomotor seizures, following instillation of a drop of 0.9% saline solution prior to this application of electric current. Abolition of the visual stereotypic behavior characterized as minimal automatist behaviors, similar to the aura that human patients experience during psychomotor seizure, is defined as antipsychomotor seizure activity."}, "[4]": {"system": "Metrazol (scMET) induced seizures", "test": "Subcutaneous Metrazol seizure threshold test (scMET), mice", "type": "in vivo", "experimental": "Anticonvulsant activities were determined by the National Institutes of Health-National Institute of Neurological Disorders and Stroke-Antiepileptic Drug Development program for the detection and evaluation of compounds as anticonvulsants agents. Compounds were suspended in polyethylene glycol prior to injection into male Carworth Farms #1 mice. […] All statistics were obtained by Probit analysis.\nA dose of Pentylenetetrazol, a potent CNS stimulant, which produces seizures in greater than 97% of treated mice, at 85 mg/kg of body mass, was administered s.c. as a 0.5% saline solution at the posterior neck midline. […] Failure to observe even a threshold seizure, a single episode of clonic spasms of at least five second duration, is defined as anticonvulsant activity."}, "[5]": {"system": "MET-induced seizures", "test": "Metrazol seizure test, oral treatment of rats", "type": "in vivo", "conditions": "rats oral 94 μmol/kg"}, "[6]": {"test": "Rotating rod test (Rotorod Toxicity), mice", "type": "in vivo", "conditions": "for Rotorod Toxicity: challenge 0.5 and 4 h", "source_text": "(§3) This qualitative test was used to evaluate ‘neurotoxicity’, central nervous system stimulation or depression. Depression of CNS activity is a common feature of all antiepileptic drugs. Mice or rats are placed on a 1 inch diameter knurled plastic rod rotating at 6 revolutions per min. Normal mice and rats can remain on a rod rotating at this speed indefinitely. […] It may be attributed to CNS depression due to sedative and/or hypnotic activities, or a state of eminent death, due to medullary paralysis at high doses, a common unwanted side effect caused by high doses of all anticonvulsant drugs."}, "[7]": {"test": "Rotating rod test (Rotorod Toxicity), rats", "type": "in vivo", "conditions": "rats oral 94 μmol/kg; challenge 0.25, 0.5, 1, 2, and 4 h", "source_text": "as §3"}, "[8]": {"system": "zebrafish larvae", "test": "Toxicological evaluation (Maximum Tolerated Concentration) in zebrafish larvae", "type": "in vivo", "conditions": "100 µM; 24 h exposure of larvae", "experimental": "as §1, §2\nThe Maximum Tolerated Concentration (MTC) was defined as the maximum concentration at which no death or signs of toxicity (in the circulatory system) were observed.\nThe MTC in the fish water was initially determined by incubating zebrafish larvae resulting from 4 days post fertilization (dpf) with compounds assayed in E3. During 24 hours, 5 larvae of zebrafish per well were placed in a tissue culture in 24 well plates using tested compounds at 10 μM, 30 μM and 100 μM concentration in the medium. Following the 24 h period of incubation, the characteristics of the zebrafish larvae were examined. The MTC were determined in treated groups at 5 dpf after 24 h exposure to the tested drugs."}},
  "data": [
    {"molecule": "CCCC(CCC)C(=O)[O-].CCCC(CCC)C(=O)[O-].CCCC(CCC)C(=O)[O-].CCCC(CCC)C(=O)[O-].[Cu+2].[Cu+2]", "note": "[Compound 3, Tetrakis-μ-2-propylpentanoato dicopper(II)]", "values": [
      {"measurement": "percentage of relative leukocyte's migration", "setting": "[1]; zebrafish larvae, tail section + lipopolysaccharide, tested at MTC, 7 h", "result": 60, "unit": "%"}
    ]},
    {"molecule": "CCCC(CCC)C(=O)[O-].CCCC(CCC)C(=O)[O-].[Cu+2].c1cnc2c(c1)ccc1cccnc12", "note": "[Compound 4, bis-(2-propylpentanoato)(1,10-phenanthroline)copper(II)]", "values": [
      {"measurement": "anticonvulsant activity, MES challenge", "setting": "[2]", "result": "inactive"},
      {"measurement": "TPE (Time to Peak Effect)", "setting": "[3]; 18 μmol/kg", "result": 2, "unit": "h"},
      {"measurement": "activity against Minimal Clonic seizure", "setting": "[3]; 18 mol/kg, challenge times 1, 2, and 4 h", "result": "activity was found"},
      {"measurement": "ED50, Minimal Clonic seizure", "setting": "[3]; mice", "result": 8, "unit": "µmol/kg"},
      {"measurement": "toxicity observed in MCS test", "setting": "[3]; mice 188 μmol/kg, 0.25, 0.5, 1, and 2 h", "result": "inability to grasp the rotating rod"},
      {"measurement": "deaths in MCS test", "setting": "[3]; mice 188 μmol/kg, 2 h challenge time", "result": "three deaths"},
      {"measurement": "deaths in MCS test", "setting": "[3]; mice 188 μmol/kg, before the 4 h challenge", "result": "all mice died"},
      {"measurement": "activity against Minimal Clonic seizure", "setting": "[3]; mice 188 μmol/kg, challenge 0.25, 0.5, 1, and 2 h", "result": "active"},
      {"measurement": "toxicity in MCS test", "setting": "[3]; mice 2.25, 4.5, 9, 18, and 36 μmol/kg, 2 h", "result": "absence of toxicity"},
      {"measurement": "protection against the Minimal Clonic seizure", "setting": "[3]; mice 2.25, 4.5, 9, 18, and 36 μmol/kg, challenge at 2 h", "result": "dose-related increase in protection"},
      {"measurement": "deaths in MCS test", "setting": "[3]; mice ip 94 μmol/kg, after the 2 h challenge", "result": "two deaths"},
      {"measurement": "protection against Minimal Clonic Seizure", "setting": "[3]; mice ip 94 μmol/kg, challenge 0.25, 0.5, 1, and 2 h", "result": "protected"},
      {"measurement": "toxicity observed in MCS test", "setting": "[3]; mice ip 94 μmol/kg, most mice", "result": "Minimal motor impairment"},
      {"measurement": "deaths in MCS test", "setting": "[3]; mice ip 94 μmol/kg, prior to challenge at 4 h", "result": "All treated mice died"},
      {"measurement": "anticonvulsant activity against MCS, complex versus individual constituents", "setting": "[3]", "result": "μmolar level"},
      {"measurement": "deaths in scMET test", "setting": "[4]; 188 μmol/kg at 4 h challenge and 570 μmol/kg at 0.5 challenge time", "result": "deaths occurring without seizure"},
      {"measurement": "anticonvulsant activity, scMET seizure model", "setting": "[4]; mice 5.7, 19, 57, 188, and 570 μmol/kg, challenge 0.5 and 4 h", "result": "inactive"},
      {"measurement": "adverse effects in MET test", "setting": "[5]", "result": "continuous seizure activity, death following continuous seizure activity, or tonic seizure extension"},
      {"measurement": "protection against MET-induced seizures", "setting": "[5]; challenge 0.25, 0.5, 1, 2, and 4 h", "result": "not protective"},
      {"measurement": "deaths in Rotorod test", "setting": "[6]; mice 188 μmol/kg, 4 h challenge time", "result": "three deaths"},
      {"measurement": "Rotorod Toxicity", "setting": "[6]; mice 188 μmol/kg, impaired ability to grasp the rotating rod", "result": "observed"},
      {"measurement": "Rotorod Toxicity", "setting": "[6]; mice 570 μmol/kg", "result": "impaired ability to grasp the rotating rod, sedation, and deaths without seizure"},
      {"measurement": "Rotorod Toxicity", "setting": "[6]; mice ip 5.7, 19, and 57 μmol/kg", "result": "not observed"},
      {"measurement": "Rotorod Toxicity", "setting": "[7]", "result": "failed to evidence Rotorod Toxicity"}
    ]},
    {"molecule": "CCCC(CCC)C(=O)[O-].CCCC(CCC)C(=O)[O-].[Mg+2]", "note": "[Compound 7]", "values": [
      {"measurement": "toxicity in zebrafish", "setting": "[8]", "result": "did not show any toxicity"},
      {"measurement": "anti-inflammatory result, ranking in words", "setting": "[1]; zebrafish", "result": "best result"}
    ]},
    {"molecule": "[Cl][Cu][Cl]", "note": "[copper chloride, reference compound]", "values": [
      {"measurement": "anticonvulsant activity against MCS, complex versus individual constituents", "setting": "[3]", "result": "no anticonvulsant of activity"}
    ]},
    {"molecule": "COc1ccc2c(c1)c(CC(=O)O)c(C)n2C(=O)c1ccc(Cl)cc1", "note": "[indomethacin, reference compound]", "values": [
      {"measurement": "percentage of relative leukocyte's migration", "setting": "[1]; positive control, indomethacin at 30 μM", "result": 20, "unit": "%"}
    ]},
    {"molecule": "c1cnc2c(c1)ccc1cccnc12", "note": "[phenanthroline, 1,10-phenanthroline, reference compound]", "values": [
      {"measurement": "anticonvulsant activity against MCS, complex versus individual constituents", "setting": "[3]", "result": "no anticonvulsant of activity"}
    ]},
    {"molecule": "CCCC(CCC)C(=O)O", "note": "[sodium valproate, reference compound]", "values": [
      {"measurement": "ED50", "setting": "[3]; Mus musculus, same paradigm, sodium valproate", "result": 2800, "unit": "µmol/kg"}
    ]},
    {"molecule": "CCCC(CCC)C(=O)O", "note": "[valproic acid, 2-propylpentanoic acid]", "values": [
      {"measurement": "anticonvulsant activity against MCS, complex versus individual constituents", "setting": "[3]", "result": "much less potency"}
    ]},
    {"molecule": "copper acetate [reference compound]", "values": [
      {"measurement": "anticonvulsant activity against MCS, complex versus individual constituents", "setting": "[3]", "result": "no anticonvulsant of activity"}
    ]}
  ]
}
